# Article PMC5182133 (Cell chemical biology, 2016)
# What was measured:
# [1] = biological target: T1, DCK (Homo sapiens, UniProt P27707); experiment: Affinity matrix pulldown and immunoblot for DCK; assay type: binding; details: CAL-51 lysate
# [2] = biological target: T2, H6PD (Homo sapiens, UniProt O95479); experiment: Affinity matrix pulldown and immunoblot for H6PD; assay type: binding; details: CAL-51 lysate; competed with 20 μM free rucaparib
# T2 sequence (O95479 20-791): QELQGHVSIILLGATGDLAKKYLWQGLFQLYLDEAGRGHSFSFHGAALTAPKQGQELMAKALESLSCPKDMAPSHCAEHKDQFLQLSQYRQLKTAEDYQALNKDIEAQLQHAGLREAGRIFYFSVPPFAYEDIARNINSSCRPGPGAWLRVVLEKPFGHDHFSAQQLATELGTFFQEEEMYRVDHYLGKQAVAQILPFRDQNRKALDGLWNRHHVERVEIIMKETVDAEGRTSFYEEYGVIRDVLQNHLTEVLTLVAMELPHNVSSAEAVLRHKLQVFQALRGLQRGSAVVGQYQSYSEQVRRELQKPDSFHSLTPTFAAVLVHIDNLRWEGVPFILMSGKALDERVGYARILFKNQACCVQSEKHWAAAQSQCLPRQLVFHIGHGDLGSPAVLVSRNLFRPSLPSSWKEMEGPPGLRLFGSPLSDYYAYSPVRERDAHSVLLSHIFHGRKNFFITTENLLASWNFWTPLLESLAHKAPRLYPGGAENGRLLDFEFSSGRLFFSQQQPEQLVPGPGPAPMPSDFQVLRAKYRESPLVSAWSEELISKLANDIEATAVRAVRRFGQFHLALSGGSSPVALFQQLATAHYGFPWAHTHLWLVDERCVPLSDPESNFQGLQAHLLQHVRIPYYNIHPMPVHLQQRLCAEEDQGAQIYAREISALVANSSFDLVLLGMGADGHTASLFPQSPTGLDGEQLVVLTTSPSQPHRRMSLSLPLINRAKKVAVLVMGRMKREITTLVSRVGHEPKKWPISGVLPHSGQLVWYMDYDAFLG
# [3] = ref Haura et al., 2010; cited from earlier work
# [4] = biological target: T2, H6PD; details: read-out: IC50 for H6PD inhibition (reported); ref Tagawa et al., 2015; cited from earlier work
# [5] = system: A549 cells; details: 2 μM cytarabine, 3 days
# [6] = biological target: T1, DCK; details: compared to the other PARPi
# [7] = system: CAL-51 shH6PD cells; experiment: Cell viability in CAL-51 shNT vs shH6PD cells; assay type: cell-based; details: CAL-51 shH6PD vs shNT, 5 d
# [8] = ref Plummer et al., 2008; cited from earlier work
# [9] = system: H322 cells; experiment: H322 cell viability; assay type: cell-based; details: 5 d, CellTiterGlo
# [10] = reach as high as; ref Murray et al., 2014; cited from earlier work
# [11] = system: CAL-51 cells; experiment: Immunoblot of apoptosis markers in CAL-51 cells after PARPi treatment; assay type: cell-based; details: 48 h, 40 μM PARPi
# [12] = system: CAL-51 H6PD-OE cells; experiment: Cell viability in CAL-51 parental vs H6PD-overexpressing cells; assay type: cell-based; details: CAL-51 H6PD-OE vs parental, 5 d
# T1 sequence (P27707 whole entry): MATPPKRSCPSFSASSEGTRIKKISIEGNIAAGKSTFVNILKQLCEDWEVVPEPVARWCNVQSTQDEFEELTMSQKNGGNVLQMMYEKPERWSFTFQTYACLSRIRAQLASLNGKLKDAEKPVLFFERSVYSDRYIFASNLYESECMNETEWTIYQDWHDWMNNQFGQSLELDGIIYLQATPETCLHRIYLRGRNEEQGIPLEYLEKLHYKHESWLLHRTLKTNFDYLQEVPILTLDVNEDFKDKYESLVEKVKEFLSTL
structure (smiles),measurement,setting,value
NCCCN1CCC[C@@H](c2ccc(-n3cc4cccc(C(N)=O)c4n3)cc2)C1 [c-niraparib],Enrichment of DCK by affinity matrix (immunoblot),[1],confirmed
CN(CCCN)Cc1ccc(-c2[nH]c3cc(F)cc4c3c2CCNC4=O)cc1 [c-rucaparib],Enrichment of H6PD by affinity matrix (immunoblot),[2],specifically enriched
COc1cc2ncnc(Nc3ccc(F)c(Cl)c3)c2cc1OCCCN1CCOCC1 [gefitinib],Drug concentration in human tumor tissue relative to plasma levels,[3],up to 40 fold
O=c1c(-c2ccc(O)cc2)coc2cc(O)cc(O)c12 [genistein],IC50,[4],> 50 µM
NC(=O)c1cccc2cn(-c3ccc([C@@H]4CCCNC4)cc3)nc12 [niraparib],Rescue of A549 cells from cytarabine toxicity,[5]; DI-39 as positive control,dose-dependently rescued
same,Concentrations needed to observe reduced cytarabine toxicity,[5]; A549 cells,20 to 40 µM
same,Inhibition of DCK activity in cell-free extracts,[6],specific inhibition
O=C(c1cc(Cc2n[nH]c(=O)c3ccccc23)ccc1F)N1CCN(C(=O)C2CC2)CC1 [olaparib],Effect of stable H6PD knockdown on potency (cell viability),[7],increased the potency
CNCc1ccc(-c2[nH]c3cc(F)cc4c3c2CCNC4=O)cc1 [rucaparib],Plasma levels in patients,[8],2700 nM
same,Viability of H322 cells at high concentrations compared to other PARPi,[9],decreased more
same,Concentrations in murine tumors,[10],~ 20 μM
same,PARP1 and caspase-3 cleavage compared to the other PARPi,[11],increased
same,Effect of stable H6PD overexpression on IC50 for inhibition of cell viability,[12],increased the IC50
Cn1ncnc1[C@H]1c2n[nH]c(=O)c3cc(F)cc(c23)N[C@@H]1c1ccc(F)cc1 [talazoparib],Effect of stable H6PD knockdown on potency (cell viability),[7],increased the potency
